Test results published in patent publication US20100056519A1, “COMPOSITION AND METHOD FOR REDUCING PLATELET ACTIVATION AND FOR THE TREATMENT OF THROMBOTIC EVENTS” (priority 2008, published 2010).

Experiments:
Assay type in all cases: cell-based, human
[1] = system: CD-40L (CD154); experiment: Unstimulated whole blood flow cytometry, CD40-ligand; conditions: for CD-40L (CD154), Mean Fluorescence Intensity: unstimulated, Mean ± SD
Protocol: (§1) The methodology employed was conventional aggregation induced by 5 μM ADP, 1 μg/ml collagen, 10 μM TRAP, whole blood aggregation with 1 μg/ml collagen, Ultegra, and PFA-100 Analyzers, expression of 14 intact, and TRAP-stimulated major receptors by whole blood flow cytometry were utilized to assess platelet activity after preincubation with escalating concentrations of E5555 (20 ng/ml, 50 ng/ml, and 100 ng/ml). The experiments were performed in healthy volunteers, CAD patients treated with ASA, and CAD patients treated with ASA and clopidogrel combination (n=10, for each group).
(§2) An Informed Consent was obtained from all volunteers. Drug users were excluded from data analysis. The study was approved by Quorum Institutional Review Board. All subjects underwent blood sampling after at least 30 minutes of rest and two or more hours of fasting. Blood (28 ml) was drawn between 8 and 10 a.m. in order to avoid any diurnal influence and sampled from an antecubital vein using a 21-gauge butterfly needle containing 3.2% sodium citrate (1:9 volume) after having discarded the first 1.5 ml of free running blood. Four Vacutainer tubes (7.0 ml) were collected for a total of 28 ml of whole blood-citrate mixture from each study participant. Chronologically, blood samples were delivered to the core laboratory facility within 45 minutes after drawing. Then all tubes of blood-citrate mixture were pooled. One portion of pooled blood (5 ml) was kept as an internal control and pretreated with the vehicle. The remaining blood (23 ml) was used for the in vitro exposure to E5555 at concentrations of 20 ng/ml, 50 ng/ml, and 100 ng/ml. […] The platelet aggregation studies, Rapid Analyzers measures, and flow cytometry preparations were initiated within no more than 110 minutes following the blood draw, incubation with the drug, and preparation of the samples.
(§3) Formation of platelet-leukocyte aggregates was assessed by dual labeling with pan-platelet marker (CD151), and then with CD14, the macrophage receptor for endotoxin lipopolysaccharides (PharMingen, and Coulter, San Diego, Calif., USA). The tubes were then covered with aluminum foil and incubated at 37° C. for 40 minutes with gentle rotation. After incubation, samples were immediately analyzed on a Becton Dickinson FACScan flow cytometer. The instrument was set up to measure forward light scatter, and FITC fluorescence. All parameters were collected using four-decade logarithmic amplification. The data was retrieved in list mode files and then analyzed. P selectin was expressed as percent positive cells. Other antigens were expressed as log mean fluorescence intensity.

[2] = system: PMA (CD14 + CD151); experiment: Unstimulated whole blood flow cytometry, platelet-monocyte aggregates; conditions: for PMA (CD14 + CD151), Mean Fluorescence Intensity: unstimulated, Mean ± SD
Protocol: as §1, §2, §3

[3] = system: platelets; experiment: Platelet aggregation induced by 10 μM TRAP; conditions: for Platelet Aggregation (%), TRAP 10 μM: Mean ± SD
Protocol: as §1, §2
Platelet counts were determined in each PRP sample with a Coulter Counter ZM (Coulter Co., Hialeah, Fla.). Platelet numbers were adjusted to 3.50×10^8/ml for aggregation using homologous platelet-poor plasma. Platelet aggregation was stimulated with 5 μM ADP, 1 μg/ml collagen, or 10 μM TRAP. All agonists were obtained from Chronolog Corporation (Havertown, Pa.) and Sigma (St. Louis, Miss.). Platelet aggregation experiments were performed using a Chrono-Log Lumi-Aggregometer (model 560-Ca). Aggregation curves were recorded for 4 minutes and analyzed according to internationally established standards using Aggrolink® software. Platelet aggregability was expressed as the percentage of light transmittance change from baseline using platelet-poor plasma as a reference.

[4] = system: LAMP-3 (CD63); experiment: Unstimulated whole blood flow cytometry, LAMP-3
Protocol: as §1, §2, §3

[5] = overall summary, stimulation not stated
[6] = E5555 20 ng/ml, Patients (ASA + C)
[7] = E5555 50 ng/ml, Patients (ASA + C)
[8] = E5555 100 ng/ml, Patients (ASA + C)
[9] = E5555 100 ng/ml, Patients (ASA)

Question: `Br.CCOc1cc2c(c(F)c1OCC)C(=N)N(CC(=O)c1cc(N3CCOCC3)c(OC)c(C(C)(C)C)c1)C2` [E5555, 1-(3-tert-butyl-4-methoxy-5-morpholinophenyl)-2-(5,6-diethoxy-7-fluoro-1-imino-1,3-dihydro-2H-isoindol-2-yl)ethanone hydrobromide] was tested. Which “CD40-ligand, effect in words” value [1, 5] did it give?
Answer: The value was “not affected”.

Question: And the “CD-40L (CD154), Mean Fluorescence Intensity” value (“CD-40L (CD154)” for short) [1, 6]?
Answer: Its value is 5.1 ± 1.0 MFI.

Question: And the “CD-40L (CD154)” value ([1]; E5555 20 ng/ml, Patients (ASA))?
Answer: Its value is 5.0 ± 1.0 MFI.

Question: And the “CD-40L (CD154)” value ([1]; E5555 20 ng/ml, Volunteers)?
Answer: Its value is 5.4 ± 0.8 MFI.

Question: What about the “CD-40L (CD154)” value [1, 7] of the same molecule?
Answer: The value was 5.2 ± 0.7 MFI.

Question: And the “CD-40L (CD154)” value ([1]; E5555 50 ng/ml, Patients (ASA))?
Answer: Its value is 5.2 ± 0.8 MFI.

Question: And the “CD-40L (CD154)” value ([1]; E5555 50 ng/ml, Volunteers)?
Answer: Its value is 5.3 ± 0.5 MFI.

Question: What about the “CD-40L (CD154)” value [1, 8] of the same molecule?
Answer: Its value is 5.3 ± 1.3 MFI.

Question: And the “CD-40L (CD154)” value [1, 9]?
Answer: Its value is 5.1 ± 1.0 MFI.

Question: What about the “CD-40L (CD154)” value ([1]; E5555 100 ng/ml, Volunteers) of the same molecule?
Answer: Its value is 5.0 ± 0.9 MFI.

Question: And the “Formation of platelet-monocyte aggregates, effect in words” value [2, 5]?
Answer: The value was “significantly reduced”.

Question: And the “PMA (CD14 + CD151), Mean Fluorescence Intensity” value (“PMA (CD14 + CD151)” for short) [2, 6]?
Answer: Its value is 104 ± 16 MFI.

Question: And the “PMA (CD14 + CD151)” value ([2]; E5555 20 ng/ml, Patients (ASA))?
Answer: Its value is 114 ± 18 MFI.

Question: What about the “PMA (CD14 + CD151)” value ([2]; E5555 20 ng/ml, Volunteers) of the same molecule?
Answer: Its value is 130 ± 16 MFI.

Question: And the “PMA (CD14 + CD151)” value [2, 7]?
Answer: The value was 100 ± 27 MFI.

Question: What about the “PMA (CD14 + CD151)” value ([2]; E5555 50 ng/ml, Patients (ASA)) of the same molecule?
Answer: Its value is 114 ± 19 MFI.

Question: What about the “PMA (CD14 + CD151)” value ([2]; E5555 50 ng/ml, Volunteers) of the same molecule?
Answer: The value was 128 ± 18 MFI.

Question: What about the “PMA (CD14 + CD151)” value [2, 8] of the same molecule?
Answer: The value was 105 ± 21 MFI.

Question: And the “PMA (CD14 + CD151)” value [2, 9]?
Answer: Its value is 107 ± 20 MFI.

Question: What about the “PMA (CD14 + CD151)” value ([2]; E5555 100 ng/ml, Volunteers) of the same molecule?
Answer: Its value is 124 ± 23 MFI.

Question: What about the “TRAP-induced aggregation, effect in words” value (“TRAP-induced aggregation” for short) ([3]; ASA-treated patients with coronary artery disease) of the same molecule?
Answer: Its value is “fully inhibiting”.

Question: What about the “TRAP-induced aggregation” value ([3]; CAD patients treated with ASA+clopidogrel) of the same molecule?
Answer: The value was “profound blockade”.

Question: What about the “Platelet Aggregation (%), TRAP 10 μM” value ([3]; E5555 20 ng/ml, CAD patients treated with ASA + clopidogrel) of the same molecule?
Answer: Its value is 2.2 ± 1.6 %.

Question: What about the “Platelet Aggregation (%), TRAP 10 μM” value ([3]; E5555 20 ng/ml, CAD patients treated with ASA) of the same molecule?
Answer: The value was 2.7 ± 1.4 %.

Question: What about the “Platelet Aggregation (%), TRAP 10 μM” value ([3]; E5555 20 ng/ml, healthy volunteers) of the same molecule?
Answer: Its value is 2.1 ± 1.2 %.

Question: And the “Platelet Aggregation (%), TRAP 10 μM” value ([3]; E5555 50 ng/ml, CAD patients treated with ASA + clopidogrel)?
Answer: The value was 1.8 ± 1.0 %.

Question: And the “Platelet Aggregation (%), TRAP 10 μM” value ([3]; E5555 50 ng/ml, CAD patients treated with ASA)?
Answer: Its value is 3.3 ± 1.8 %.

Question: And the “Platelet Aggregation (%), TRAP 10 μM” value ([3]; E5555 50 ng/ml, healthy volunteers)?
Answer: The value was 1.3 ± 1.2 %.

Question: What about the “Platelet Aggregation (%), TRAP 10 μM” value ([3]; E5555 100 ng/ml, CAD patients treated with ASA + clopidogrel) of the same molecule?
Answer: Its value is 2.7 ± 2.2 %.

Question: What about the “Platelet Aggregation (%), TRAP 10 μM” value ([3]; E5555 100 ng/ml, CAD patients treated with ASA) of the same molecule?
Answer: Its value is 2.9 ± 2.0 %.

Question: What about the “Platelet Aggregation (%), TRAP 10 μM” value ([3]; E5555 100 ng/ml, healthy volunteers) of the same molecule?
Answer: Its value is 2.7 ± 1.8 %.

Question: What about the “TRAP-induced aggregation” value ([3]; healthy volunteers, E5555 20, 50, and 100 ng/ml) of the same molecule?
Answer: The value was “inhibited completely”.

Question: And the “TRAP-induced aggregation” value ([3]; overall summary of the study)?
Answer: The value was “inhibited almost completely”.

Question: And the “LAMP, effect in words” value [4, 5]?
Answer: The value was “not affected”.

Question: What about the “LAMP-3 (CD63), Mean Fluorescence Intensity” value ([4]; unstimulated, E5555 20 ng/ml, Patients (ASA + C), Mean ± SD) of the same molecule?
Answer: The value was 7.2 ± 1.3 MFI.
